According to patent publication US8778953B2, “Inhibitors of P38 map kinase” (Chroma Therapeutics Ltd., priority 2008, dated 2014):
Like-named read-outs stand apart in the source and are kept apart here.

Key:
THP-1 TNFα release = assay: LPS-stimulation of THP-1 cells, TNF-α release (ELISA); format: cell-based; details: Homo sapiens; LPS-stimulated THP-1 cells, IC50 range; read-out: Inhibitor activity versus THP-1 TNFα release
Description: THP-1 cells were plated in 100 μl at a density of 4×10^4 cells/well in V-bottomed 96 well tissue culture treated plates and incubated at 37° C. in 5% CO2 for 16 hours. 2 hours after the addition of the inhibitor in 100 μl of tissue culture media, the cells were stimulated with LPS (E. coli strain 005:B5, Sigma) at a final concentration of 1 μg/ml and incubated at 37° C. in 5% CO2 for 6 hours. TNF-α levels were measured from cell-free supernatants by sandwich ELISA (R&D Systems #QTA00B).

p38 MAP Kinase a = target: T1, p38 MAP Kinase a (Homo sapiens, UniProt Q16539); assay: p38 MAP Kinase activity, radiometric filter-binding assay (Upstate); format: biochemical; details: IC50 range; read-out: Inhibitor activity versus p38 MAPKa
T1 construct: purchased Upstate (Dundee UK)
Description: The ability of compounds to inhibit p38 MAP a Kinase activity was measured in an assay performed by Upstate (Dundee UK). In a final reaction volume of 25 μL, p38 MAP Kinase a (5-10 mU) is incubated with 25 mM Tris pH 7.5, 0.002 mMEGTA, 0.33 mg/mL myelin basic protein, 10 mM MgAcetate and [g-33p-ATP] (specific activity approx. 500 cpm/pmol, concentration as required). The reaction is initiated by the addition of the MgATP mix. After incubation for 40 minutes at room temperature, the reaction is stopped by the addition of 5 μL of a 3% phosphoric acid solution. 10 μL of the reaction is then spotted onto a P30 filtermat and washed three times for 5 minutes in 75 mM phosphoric acid and once in methanol prior to drying and scintillation counting.
Duplicate data points are generated from a 1/3 log dilution series of a stock solution in DMSO. Nine dilutions steps are made from a top concentration of 10 μM and a ‘no compound’ blank is included. The standard radiometric filter-binding assay is performed at an ATP concentration at, or close to, the Km. Data from scintillation counts are collected and subjected to free-fit analysis by Prism software. From the curve generated, the concentration giving 50% inhibition is determined and reported.

[1] = tested on: human whole blood TNFα release; assay: LPS-stimulation of human whole blood, TNF-α release (ELISA); format: cell-based; details: LPS-stimulated human whole blood, IC50 range; read-out: Inhibitor activity versus human whole blood TNFα release
Description: Whole blood was taken by venous puncture using heparinised vacutainers (Becton Dickinson) and diluted in an equal volume of RPMI1640 tissue culture media (Sigma). 100 μl was plated in V-bottomed 96 well tissue culture treated plates. 2 hours after the addition of the inhibitor in 100 μl of RPMI1640 media, the blood was stimulated with LPS (E coli strain 005:B5, Sigma) at a final concentration of 100 ng/ml and incubated at 37° C. in 5% CO2 for 6 hours. TNF-α levels were measured from cell-free supernatants by sandwich ELISA (R&D Systems #QTA00B).

U937 cells = assay: Cell accumulation of the acid in U937 cells; format: cell-based; details: U937 monocytic versus non-monocytic cell line
[2] = tested on: phosphorylation of MAPKAP-2 in U937 cells; assay: p38 MAP kinase cellular assay: inhibition of phosphorylation of MAPKAP-2 in U937 cells; format: cell-based; details: for IC50: Homo sapiens, U-937; for Ratio cell IC50s to enzyme IC50: U937 cell IC50 / P38 enzyme IC50
Description: (§1) U937 or HUT78 cells were plated in RPMI 1640, and were incubated at 37° C., 5% CO2 for 18 hours. 10 mM stocks of compounds were diluted media/0.1% DMSO to give a log or semi-log dilution series. The wells for ‘no treatment’ and ‘anisomycin’ were treated with 0.1% DMSO only. The cells were incubated at 37° C., 5% CO2 for a further 4 hours. Anisomycin was added to all wells except ‘no treatment’ at a final concentration of 10 μM. The cells were incubated at 37° C., 5% CO2 for 30 minutes before harvest. Plates were stood on ice whilst harvesting, and all following steps were carried out at 4° C. The cells were pelleted at 1000 rpm for 10 minutes at 4° C., the media aspirated, and the pellet washed with cold PBS. The pellets were lysed in 120 μl of SDS lysis buffer (62.5 mM Tris, pH 6.8, 2% SDS, 10% glycerol, 50 mM DTT, with protease inhibitors and phosphatase inhibitors added according to the manufacturer's recommendations). After 30 minutes on ice, the samples were sonicated for 5 seconds before centrifugation at 13,000 rpm 4° C. for 10 minutes to remove cell debris. 10 μl of the resulting gel samples were loaded per lane on NOVEX 4-12% Bis-Tris MOPS gels. Membranes from western transfer of gels were blotted with anti-phospho MAPKAP2, anti-phospho HSP27 and anti GAPDH according to the manufacturer's instructions. Signal was visualised using HRP-linked anti-rabbit or anti-mouse antibodies, ECL reagent and ECL film. IC50 values for the various compounds were visualised from the resulting photographic images, using both band-shift and signal intensity.

[3] = tested on: phosphorylation of MAPKAP-2 in HUT 78 cells; assay: p38 MAP kinase cellular assay: inhibition of phosphorylation of MAPKAP-2 in HUT 78 cells; format: cell-based; details: for Ratio IC50s in HUT 78 to U937 cells: HUT 78 IC50 / U937 IC50; for IC50: Homo sapiens, HuT78, Table 3, HUT 78 non-monocytic cell line
Description: as §1

[4] = Table 2, U937 cells, read-out: Inhibition of phosphorylation of MAPKAP-2 in U937 cells (IC50)
[5] = Table 3, U937 monocyte cell line, read-out: Inhibition of phosphorylation of MAPKAP-2 in U937 cells (IC50, nM) (monocyte cell line)

T1 sequence (Q16539 whole entry): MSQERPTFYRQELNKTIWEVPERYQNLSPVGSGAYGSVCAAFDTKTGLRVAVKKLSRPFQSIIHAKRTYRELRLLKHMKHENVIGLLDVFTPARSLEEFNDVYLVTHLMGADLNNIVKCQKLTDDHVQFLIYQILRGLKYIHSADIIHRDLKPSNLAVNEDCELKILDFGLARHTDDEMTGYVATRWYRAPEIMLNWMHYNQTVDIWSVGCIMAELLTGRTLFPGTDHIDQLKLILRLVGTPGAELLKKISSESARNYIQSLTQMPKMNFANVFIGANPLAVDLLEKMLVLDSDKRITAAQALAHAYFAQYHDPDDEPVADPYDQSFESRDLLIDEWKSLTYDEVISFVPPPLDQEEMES

SMILES | IC50 (THP-1 TNFα release) [nM] | IC50 (p38 MAP Kinase a) [nM] | IC50 [1] [nM] | other results
CC[C@](C)(NCCc1ccc(-n2c(N)c(C(=O)c3ccc(F)cc3F)ccc2=O)cc1)C(=O)OC1CCCC1 [Example 5, Cyclopentyl N-(2-{4-[6-amino-5-(2,4-difluorobenzoyl)-2-oxopyridin-1(2H)-yl]phenyl}ethyl)-L-isovalinate] | < 100 | 100 to 1000 | > 1000 | –
CC[C@](C)(NCCc1ccc(-n2c(N)c(C(=O)c3ccc(F)cc3F)ccc2=O)cc1)C(=O)OC(C)(C)C [Example 6, tert-butyl N-(2-{4-[6-amino-5-(2,4-difluorobenzoyl)-2-oxopyridin-1(2H)-yl]phenyl}ethyl)-L-isovalinate] | 100 to 1000 | 100 to 1000 | – | –
CC(C)(NCCc1ccc(-n2c(N)c(C(=O)c3ccc(F)cc3F)ccc2=O)cc1)C(=O)OC1Cc2ccccc2C1 [Example 7, 2,3-dihydro-1H-inden-2-yl N-(2-{4-[6-amino-5-(2,4-difluorobenzoyl)-2-oxopyridin-1(2H)-yl]phenyl}ethyl)-2-methylalaninate] | < 100 | 100 to 1000 | > 1000 | –
CC(C)(NCCc1ccc(-n2c(N)c(C(=O)c3ccc(F)cc3F)ccc2=O)cc1)C(=O)OC1CC2CCC1C2 (centres unmarked) [Example 8, bicyclo[2.2.1]hept-2-yl N-(2-{4-[6-amino-5-(2,4-difluorobenzoyl)-2-oxopyridin-1(2H)-yl]phenyl}ethyl)-2-methylalaninate] | < 100 | – | > 1000 | –
CC(C)(NC(=O)Cc1ccc(-n2c(N)c(C(=O)c3ccc(F)cc3F)ccc2=O)cc1)C(=O)O [Example 13] | – | 100 to 1000 | – | –
Nc1c(C(=O)c2ccc(F)cc2F)ccc(=O)n1-c1ccc(CCNC2(C(=O)O)CCCC2)cc1 [Example 15, 1-[(2-{4-[6-amino-5-(2,4-difluorobenzoyl)-2-oxopyridin-1(2H)-yl]phenyl}ethyl)amino]cyclopentanecarboxylic acid] | – | 100 to 1000 | – | –
CC(C)(NCCCOc1cc(F)c(-n2c(N)c(C(=O)c3ccc(F)cc3F)ccc2=O)c(F)c1)C(=O)O [Example 16, N-(3-{4-[6-amino-5-(2,4-difluorobenzoyl)-2-oxopyridin-1(2H)-yl]-3,5-difluorophenoxy}propyl)-2-methylalanine] | – | < 100 | – | –
Nc1c(C(=O)c2ccc(F)cc2F)ccc(=O)n1-c1ccccc1 [Parent Compound I, reference compound] | – | – | – | IC50 [2, 4]: 300 nM; IC50 [2, 5]: 300 nM; Ratio cell IC50s to enzyme IC50 [2]: 6; Ratio IC50s in HUT 78 to U937 cells [3]: 1.5; Ratio IC50s in HUT 78 to U937 cells ([3]; listed as compound I): equipotent; IC50 [3]: 450 nM

The next lines start with results.

IC50 (THP-1 TNFα release) [nM] | IC50 (p38 MAP Kinase a) [nM] | IC50 [1] [nM] | SMILES | other results
< 100 | < 100 | 100 to 1000 | CC(C)(NCCc1ccc(-n2c(N)c(C(=O)c3ccc(F)cc3F)ccc2=O)cc1)C(=O)OC1CCCC1 [Example 1, Cyclopentyl N-(2-{4-[6-amino-5-(2,4-difluorobenzoyl)-2-oxopyridin-1(2H)-yl]phenyl}ethyl)-2-methylalaninate] | Accumulation of the acid in cells (in words) (U937 cells): only accumulates in the monocytic cell line; IC50 [2, 4]: 10 nM; IC50 [2, 5]: 10 nM; Ratio cell IC50s to enzyme IC50 [2]: 0.2; Potency in cells relative to the parent compound lacking the esterase motif ([2]; U937 cells): 30 times; Ratio IC50s in HUT 78 to U937 cells [3]: 100; IC50 [3]: 1000 nM
< 100 | < 100 | < 100 | CC(C)(NCCc1cc(F)c(-n2c(N)c(C(=O)c3ccc(F)cc3F)ccc2=O)c(F)c1)C(=O)OC1CCCC1 [Example 2, Cyclopentyl N-(2-{4-[6-amino-5-(2,4-difluorobenzoyl)-2-oxopyridin-1(2H)-yl]-3,5-difluorophenyl}ethyl)-2-methylalaninate] | –
100 to 1000 | < 100 | > 1000 | CC(C)(NC(=O)Cc1ccc(-n2c(N)c(C(=O)c3ccc(F)cc3F)ccc2=O)cc1)C(=O)OC1CCCC1 [Example 3, Cyclopentyl N-({4-[6-amino-5-(2,4-difluorobenzoyl)-2-oxopyridin-1(2H)-yl]phenyl}acetyl)-2-methylalaninate] | –
< 100 | < 100 | > 1000 | Nc1c(C(=O)c2ccc(F)cc2F)ccc(=O)n1-c1ccc(CCNC2(C(=O)OC3CCCC3)CCCC2)cc1 [Example 4, Cyclopentyl 1-[(2-{4-[6-amino-5-(2,4-difluorobenzoyl)-2-oxopyridin-1(2H)-yl]phenyl}ethyl)amino]cyclopentanecarboxylate] | –
< 100 | < 100 | 100 to 1000 | CC(C)(NCCCOc1cc(F)c(-n2c(N)c(C(=O)c3ccc(F)cc3F)ccc2=O)c(F)c1)C(=O)OC1CCCC1 [Example 9, Cyclopentyl N-(3-{4-[6-amino-5-(2,4-difluorobenzoyl)-2-oxopyridin-1(2H)-yl]-3,5-difluorophenoxy}propyl)-2-methylalaninate] | –
< 100 | < 100 | > 1000 | CC(C)(C)OC(=O)C(C)(C)NCCCOc1cc(F)c(-n2c(N)c(C(=O)c3ccc(F)cc3F)ccc2=O)c(F)c1 [Example 10, tert-butyl N-(3-{4-[6-amino-5-(2,4-difluorobenzoyl)-2-oxopyridin-1(2H)-yl]-3,5-difluorophenoxy}propyl)-2-methylalaninate] | –
– | < 100 | – | CC(C)(NCCc1ccc(-n2c(N)c(C(=O)c3ccc(F)cc3F)ccc2=O)cc1)C(=O)O [Example 11, N-(2-{4-[6-amino-5-(2,4-difluorobenzoyl)-2-oxopyridin-1(2H)yl]phenyl}ethyl)-2-methylalanine] | –
– | < 100 | – | CC(C)(NCCc1cc(F)c(-n2c(N)c(C(=O)c3ccc(F)cc3F)ccc2=O)c(F)c1)C(=O)O [Example 12, N-(2-{4-[6-amino-5-(2,4-difluorobenzoyl)-2-oxopyridin-1(2H)-yl]-3,5-difluorophenyl}ethyl)-2-methylalanine] | –
– | < 100 | – | CC[C@](C)(NCCc1ccc(-n2c(N)c(C(=O)c3ccc(F)cc3F)ccc2=O)cc1)C(=O)O [Example 14, N-(2-{4-[6-amino-5-(2,4-difluorobenzoyl)-2-oxopyridin-1(2H)-yl]phenyl}ethyl)-L-isovaline] | –
